Laboratory results taken from ChEMBL document CHEMBL1141671, “N6-1,3-diphenylurea derivatives of 2-phenyl-9-benzyladenines and 8-azaadenines: synthesis and biological evaluation as allosteric modulators of A2A adenosine receptors” (Eur J Med Chem, 2008).

What was measured:
[1] = test system: Aorta; experiment: Vasorelaxation activity in Wistar rat endothelium-intact aortic ring assessed as inhibition of noradrenaline-induced contraction at 10 uM after 20 mins; assay type: functional
[2] = test system: Aorta; experiment: Vasorelaxation activity in Wistar rat endothelium-intact aortic ring assessed as inhibition of noradrenaline-induced contraction after 20 mins; conditions: read-out: pIC50 (converted)
[3] = test system: Aorta; experiment: Potentiation of CGS-21680-induced vasorelaxation activity in Wistar rat endothelium-intact aortic ring assessed as inhibition of noradrenaline-induced contraction at 10 uM after 20 mins; assay type: functional
[4] = test system: Aorta; experiment: tissue or blood; conditions: Rattus norvegicus, Wistar, 20 min, read-out: pIC50 (converted)
[5] = target: T1, Adenosine receptor A2a (Homo sapiens, UniProt P29274); experiment: Displacement of [3H]CGS21680 from human recombinant adenosine A2A receptor expressed in CHO cells at 10 uM by liquid scintillation counting relative to control; assay type: cell-based
[6] = target: T1, Adenosine receptor A2a; experiment: Displacement of [3H]ZM241385 from human recombinant adenosine A2A receptor expressed in CHO cells at 10 uM by liquid scintillation counting relative to control; assay type: cell-based
[7] = target: T2, Adenosine receptor A3 (Homo sapiens) (UniProt P0DMS8); experiment: Displacement of [3H]NECA from human recombinant adenosine A3 receptor expressed in CHO cells at 10 uM by liquid scintillation counting relative to control; assay type: cell-based
T2 sequence (whole entry): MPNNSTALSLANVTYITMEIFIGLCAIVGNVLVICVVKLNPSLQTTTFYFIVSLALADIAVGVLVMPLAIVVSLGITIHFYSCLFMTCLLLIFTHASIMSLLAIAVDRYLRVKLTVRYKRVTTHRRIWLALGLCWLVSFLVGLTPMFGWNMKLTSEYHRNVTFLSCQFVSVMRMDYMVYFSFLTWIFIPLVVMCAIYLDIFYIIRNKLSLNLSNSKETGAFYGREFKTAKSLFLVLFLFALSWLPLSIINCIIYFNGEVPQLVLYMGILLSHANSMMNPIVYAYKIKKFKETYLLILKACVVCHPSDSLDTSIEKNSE

[8] = target: T3, Adenosine receptor A1 (Rattus norvegicus) (UniProt P25099); experiment: Displacement of [3H]CCPA adenosine A1 receptor in Wistar rat cerebral cortex at 10 uM by liquid scintillation counting relative to control; assay type: tissue-based
T3 sequence (whole entry): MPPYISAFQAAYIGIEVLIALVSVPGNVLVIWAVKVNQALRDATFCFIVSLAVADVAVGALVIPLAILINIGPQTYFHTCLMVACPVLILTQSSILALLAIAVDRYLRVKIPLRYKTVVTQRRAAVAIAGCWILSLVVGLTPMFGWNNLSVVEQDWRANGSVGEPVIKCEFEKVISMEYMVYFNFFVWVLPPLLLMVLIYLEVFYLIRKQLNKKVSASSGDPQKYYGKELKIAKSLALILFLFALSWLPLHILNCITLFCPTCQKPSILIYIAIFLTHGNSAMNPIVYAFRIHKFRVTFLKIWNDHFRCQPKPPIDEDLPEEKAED

[9] = target: T3, Adenosine receptor A1 (Rattus norvegicus); experiment: Displacement of [3H]DPCPX from adenosine A1 receptor in Wistar rat cerebral cortex at 10 uM by liquid scintillation counting relative to control; assay type: tissue-based
[10] = target: T4, Adenosine receptor A1 (Rattus norvegicus, UniProt P25099); experiment: Displacement of [3H]DPCPX from adenosine A1 receptor in Wistar rat cerebral cortex by liquid scintillation counting; assay type: tissue-based
T4 sequence (P25099 whole entry): T3 sequence (whole entry)

[11] = target: T1, Adenosine receptor A2a; experiment: Displacement of [3H]ZM241385 from human recombinant adenosine A2A receptor expressed in CHO cells by liquid scintillation counting; assay type: cell-based
[12] = target: T4, Adenosine receptor A1; experiment: Displacement of [3H]CCPA from adenosine A1 receptor in Wistar rat cerebral cortex by liquid scintillation counting; assay type: tissue-based
[13] = target: T1, Adenosine receptor A2a; conditions: CHO
Description: Dissociation of [3H]ZM241385 from human adenosine A2A receptor expressed in CHO cells at 100 uM by liquid scintillation counting relative to control

[14] = target: T1, Adenosine receptor A2a; experiment: Displacement of [3H]CGS21680 from human recombinant adenosine A2A receptor expressed in CHO cells by liquid scintillation counting; assay type: cell-based
[15] = target: T1, Adenosine receptor A2a; conditions: CHO; remark: listed apart in the source
Description: Displacement of [3H]ZM241385 from human adenosine A2A receptor expressed in CHO cells assessed as time course of dissociation at 10 uM by liquid scintillation counting relative to control

[16] = target: T5, Adenosine receptor A3 (Homo sapiens, UniProt P0DMS8); experiment: Displacement of [3H]NECA from human recombinant adenosine A3 receptor expressed in CHO cells by liquid scintillation counting; assay type: cell-based
T5 sequence (P0DMS8 whole entry): T2 sequence (whole entry)

T1 sequence (P29274 whole entry): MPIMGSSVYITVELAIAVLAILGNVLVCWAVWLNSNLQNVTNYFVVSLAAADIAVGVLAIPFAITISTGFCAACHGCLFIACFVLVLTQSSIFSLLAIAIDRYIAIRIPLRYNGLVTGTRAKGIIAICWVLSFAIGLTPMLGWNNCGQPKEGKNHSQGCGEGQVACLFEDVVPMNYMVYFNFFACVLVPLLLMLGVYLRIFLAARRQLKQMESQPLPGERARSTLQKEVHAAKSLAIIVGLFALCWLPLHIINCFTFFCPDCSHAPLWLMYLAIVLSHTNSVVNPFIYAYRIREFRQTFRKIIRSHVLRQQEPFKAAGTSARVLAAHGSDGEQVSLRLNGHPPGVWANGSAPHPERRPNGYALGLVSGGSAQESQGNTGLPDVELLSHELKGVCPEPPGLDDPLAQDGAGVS

Activity [5]	Activity [6]	Activity [7]	Activity [8]	Activity [9]	SMILES	other results
59%	142%	58%	74%	105%	COc1ccc(NC(=O)Nc2ccc(Nc3nc(-c4ccccc4)nc4c3nnn4Cc3ccccc3)cc2)cc1	–
57%	149%	37%	67%	106%	O=C(Nc1ccc(Nc2nc(-c3ccccc3)nc3c2ncn3Cc2ccccc2)cc1)Nc1ccc(C(F)(F)F)cc1	Ki [16]: 5.61 µM
120%	166%	56%	68%	107%	COc1ccc(NC(=O)Nc2ccc(Nc3nc(-c4ccccc4)nc4c3ncn4Cc3ccccc3)cc2)cc1	–
74%	107%	53%	73%	101%	O=C(Nc1ccccc1)Nc1ccc(Nc2nc(-c3ccccc3)nc3c2ncn3Cc2ccccc2)cc1	–
83%	111%	70%	85%	105%	O=C(Nc1ccc(F)cc1)Nc1ccc(Nc2nc(-c3ccccc3)nc3c2ncn3Cc2ccccc2)cc1	–

The remaining lines, values behind:

SMILES	Activity [5]	Activity [6]	Activity [7]	Activity [8]	Activity [9]	other results
CCNC(=O)[C@H]1O[C@@H](n2cnc3c(N)nc(NCCc4ccc(CCC(=O)O)cc4)nc32)[C@H](O)[C@@H]1O [CGS-21680]	–	–	–	–	–	Emax at 10 µM [1]: 76%; IC50 [2]: 263 nM; Emax at 10 µM [3]: 91%; IC50 [4]: 69.2 nM
O=[N+]([O-])c1ccc(Nc2nc(-c3ccccc3)nc3c2ncn3Cc2ccccc2)cc1	114%	84%	51%	2%	84%	Ki [10]: 699 nM; Ki [11]: 1900 nM; Ki [12]: 571 nM
O=C(Nc1ccc(F)cc1)Nc1ccc(Nc2nc(-c3ccccc3)nc3c2nnn3Cc2ccccc2)cc1	176%	167%	92%	72%	107%	EC50 [11]: 16 µM; Kdiss [13]: 0.052 s⁻¹; EC50 [14]: 9.95 µM; T1/2 [15]: 13.2 s
O=C(Nc1ccc(Nc2nc(-c3ccccc3)nc3c2nnn3Cc2ccccc2)cc1)Nc1ccc(C(F)(F)F)cc1	180%	127%	72%	74%	94%	–
O=C(Nc1ccccc1)Nc1ccc(Nc2nc(-c3ccccc3)nc3c2nnn3Cc2ccccc2)cc1	57%	133%	78%	79%	110%	–
O=[N+]([O-])c1ccc(Nc2nc(-c3ccccc3)nc3c2nnn3Cc2ccccc2)cc1	96%	98%	58%	33%	105%	–
Nc1ccc(Nc2nc(-c3ccccc3)nc3c2ncn3Cc2ccccc2)cc1	44%	59%	56%	7%	46%	Ki [10]: 396 nM; Ki [11]: 5740 nM; Ki [14]: 4170 nM; Ki [12]: 294 nM
Nc1ccc(Nc2nc(-c3ccccc3)nc3c2nnn3Cc2ccccc2)cc1	0%	77%	49%	4%	33%	EC50 [10]: 750 nM; Ki [10]: 132 nM; EC50 [11]: 9.74 µM; Ki [11]: 1300 nM; Kdiss [13]: 0.078 s⁻¹; Ki [14]: 280 nM; Ki [12]: 103 nM; T1/2 [15]: 8.89 s
